Results reported in patent US10744109B2, “Sustained release suspension containing dezocine analogue ester and preparation method therefor” (SHANDONG DANHONG PHARMACEUTICAL CO., LTD., priority 2017, dated 2020).
Like-named read-outs stand apart in the source and are kept apart here.

Assays:
[1] = cited from earlier work
[2] = in vivo, prepared as an aqueous solution; cited from earlier work
[3] = releases formula (II) after hydrolysis in vivo; cited from earlier work
[4] = Study of pharmacokinetics, intramuscular injection in male rats; assay type: in vivo; settings: whole blood, im, rat; for AUC: read-out: AUC0=last
Experimental: Study of Pharmacokinetics
3 Male rats for each group, the compound as shown in formula (I) was administered by intramuscular injection. Whole blood samples were collected at 0.25, 0.50, 1.0, 2.0, 4.0, 8.0, 12.0, 24.0 and 48.0 hour(s) after administration of the aqueous suspension group. Whole blood samples were collected at 0.25, 0.50, 2.0, 4.0, 8.0, 10.0, 24.0, 48.0, 72.0, 96.0, 120.0 and 144.0 hour(s) after administration of the oil suspension group. After precipitating the protein with acetonitrile/methanol, the supernatant was collected for sampling and the blood concentration of the compound was determined by LC-MS/MS. The non-compartment model linear logarithmic trapezoid method was used to calculate the pharmacokinetic parameters of the compounds as shown in formula (I) and formula (II) respectively by using WinNonlin™ Version 6.3 (Pharsight, Mountain View, Calif.) pharmacokinetic software.

[5] = intramuscular injection of oil suspension of formula (I), 51.4 μM/Kg
[6] = intramuscular injection of oil suspension of formula (I), 51.4 μM/Kg, 44.50 mg/mL, 0.25% Tween 80, medium chain triglyceride
[7] = intramuscular injection of aqueous suspension of formula (I), 17.5 μM/Kg

| Compound | solubility in oil solution ([1]; oil solution) | solubility in water ([1]; water) | clearance rate [2] | half-life [2] | stability in plasma [3] | Tmax [4, 5] [h] | Cmax [4, 6] [nM] | AUC [4, 5] [µM·h] | AUC(0-inf) [4, 7] [µM·h] | Tmax [4, 7] [h] | half-life [4, 7] [h] | Cmax ([4]; intramuscular injection of aqueous suspension of formula (I), 17.5 μM/Kg, 25 μm/mL, 1% Tween 20, 7.5% PEG 1000, 0.75% citric acid monohydrate) [nM] | AUC [4, 7] [µM·h] | AUC(0-inf) [4, 5] [µM·h] | half-life [4, 5] [h] |
| --- | --- | --- | --- | --- | --- | --- | --- | --- | --- | --- | --- | --- | --- | --- | --- |
| C[C@@]12CCCCC[C@@H](Cc3c(F)cc(OC(=O)CCCCCCCCC(=O)Oc4cc(F)c5c(c4)[C@@]4(C)CCCCC[C@@H](C5)[C@@H]4N)cc31)[C@@H]2N [formula (I)] | hardly soluble or insoluble | slightly soluble | too fast | short | unstable | 0.25 | 5.05 | 0.11 |  |  |  |  |  |  |  |
| C[C@@]12CCCCC[C@@H](Cc3c(F)cc(O)cc31)[C@@H]2N [formula (II)] |  |  |  |  |  | 2 | 378 | 10.1 | 5.81 | 4 | 7.52 | 438 | 5.71 | 10.4 | 24.1 |
